Measured values from PubChem BioAssay (NCI).
“And” between values parts separate entries of the source, which are not always exact repeats. Identical values can stand only once.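 1) Cells in 96-well plates. 2) Compound, 48 h, 5 concentrations. 3) Linear interpolation between surrounding doses. 4) Unreached endpoint = highest concentration. GI50 = concentration required for 50% inhibition of growth. TGI marks complete inhibition of growth.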 Where a SMILES comes first, the peptide text is derived from it. [ ]: non-standard residue; d: D form. The star is where a group is joined. ξ: configuration not given here. NMeN = CN[C@@H](CC(N)=O)C(=O)O; NMeV = CN[C@H](C(=O)O)C(C)C; ξNMeV = CNC(C(=O)O)C(C)C; Boc = CC(C)(C)OC(=O)*; ξNMeA = CNC(C)C(=O)O

What was measured:
Assay in all cases: inhibition of tumour cell growth, NCI panel, 48 h
[1] = tested on: HCT-15 colon
[2] = tested on: SF-295 CNS
[3] = tested on: HOP-92 NSCLC
[4] = tested on: UACC-257 melanoma
[5] = tested on: NCI-H522 lung
[6] = tested on: 786-0 renal
[7] = tested on: HOP-62 NSCLC
[8] = tested on: OVCAR-4 ovarian
[9] = tested on: RXF 393 renal
[10] = tested on: TK-10 renal

Compound | GI50 [1] | TGI [1] | GI50 [2] | TGI [2] | GI50 [3] | TGI [3] [µM] | GI50 [4] | TGI [4] | GI50 [5] | TGI [5] | GI50 [6] | TGI [6] | GI50 [7] | TGI [7] | GI50 [8] | TGI [8] | GI50 [9] | TGI [9] | GI50 [10] | TGI [10]
CCN=c1cc2sc3cc(NCC)c(C)cc3nc-2cc1C | 0.489 µM | 9.51 µM | 0.669 µM | 4.81 µM | 0.652 µM | 5.62 | 1.66 µM | 6.55 µM | 0.419 µM | 2.61 µM | 3.1 µM | 15.5 µM | 2.09 µM | 7.34 µM | 0.237 µM | 2.31 µM | 3.22 µM | 18 µM | 2.04 µM | 6.94 µM
O=C(N/N=C/c1ccccc1Cl)c1ccccc1Nc1ccnc(C(F)(F)F)c1 | 0.43 µM | 3.95 µM | 0.354 µM | 1.33 µM | 1.69 µM | 6.17 | 2.61 µM | 5.58 µM | 1.98 µM | 6.74 µM | 0.616 µM | 3.53 µM | 1.31 µM | 8.18 µM | 1.32 µM | > 100 µM | 0.174 µM | 1.1 µM | 0.673 µM | 3.87 µM
CCn1c(O)c(C=N)c(=O)n(CC)c1=O |  | > 100 µM |  | > 100 µM |  | > 100 |  | > 100 µM |  | > 100 µM |  | > 100 µM |  | > 100 µM |  | > 100 µM |  | > 100 µM |  | > 100 µM
CCCCCCCCCCC(O)C1CCC(C(O)CCC(O)C2CCC(CCCCCCC[C@H](O)CC3=C[C@@H](C)OC3=O)O2)O1 (stereo not given in full) |  | > 100 µM |  | > 100 µM |  | > 100 | 0.461 µM | > 100 µM |  | > 100 µM |  | 53.9 µM |  | > 100 µM |  | > 100 µM |  | 33.9 µM |  | > 100 µM
COC(=O)c1c2c(c(C)[n+]([O-])c1C)C(=O)C=C(NCc1ccc(OC)cc1)C2=O | 0.962 µM | 4.19 µM | 1.36 µM | 3.83 µM | 2.35 µM | 6.12 | 0.758 µM | 2.08 µM | 1.82 µM | 5.16 µM | 5.48 µM | 23.3 µM | 2.48 µM | 7.84 µM | 0.655 µM | 1.79 µM | 2.02 µM | 5.99 µM | 8.3 µM | 25.8 µM
CCOc1ccc(Nc2nc(-c3ccc4c(c3)NC(=O)CO4)cs2)cc1 | 4.74 µM | > 100 µM | 4.92 µM | > 100 µM | 12.4 µM | > 100 | 3.37 µM | 11 µM | 4.27 µM | 37.1 µM | 14.3 µM | > 100 µM | 15.4 µM | > 100 µM | 3.51 µM | > 100 µM | 16.1 µM | 62.4 µM | 9.98 µM | > 100 µM
O=CN1N=C(c2ccc(Cl)cc2)CC1c1cccc(Nc2ccnc3cc(Cl)ccc23)c1 (stereo not given) | 1.36 µM | > 100 µM | 0.504 µM | 9.75 µM | 1.45 µM | > 100 | 1.47 µM | 20.9 µM | 1.12 µM | 11.9 µM | 2.96 µM | 14.5 µM | 1.21 µM | 16.1 µM | 0.638 µM | 16.7 µM | 1.4 µM | 5.87 µM | 2.34 µM | 21.1 µM
COc1ccc(CNc2c3ccccc3nc3ccc(OC)cc23)cc1 | 2.27 µM | 6.18 µM | 1.73 µM | 4.27 µM | 2.17 µM | 7.69 | 2.15 µM | 4.81 µM | 3.17 µM | 14.3 µM | 2.02 µM | 4.55 µM | 3.38 µM | 15.4 µM | 2.94 µM | 10.5 µM | 1.52 µM | 3.04 µM | 3.77 µM | 13.9 µM
O=[N+]([O-])c1ccc(N=Nc2c(O)ccc3ccccc23)cc1 |  | > 100 µM | 29.8 µM and > 100 µM | > 100 µM | 32.5 µM and > 100 µM | > 100 |  | > 100 µM | 35.9 µM | > 100 µM |  | > 100 µM | 14.5 µM and > 100 µM | 37.4 µM and > 100 µM | 24.3 µM and > 100 µM | 65.7 µM and > 100 µM | 38 µM and > 100 µM | > 100 µM | 28 µM and > 100 µM | > 100 µM
COc1cccc(-c2nc3sccn3c2-c2ccnc(NCCNS(=O)(=O)c3ccccc3)c2)c1 | 2.55 µM | > 100 µM | 2.62 µM | > 100 µM | 0.596 µM | 33.6 | 4.47 µM | 55.2 µM | 2.26 µM | 27.6 µM | 4 µM | > 100 µM | 4.24 µM | 67.1 µM | 2.09 µM | > 100 µM | 2.11 µM | > 100 µM | 3.58 µM | 57.2 µM
O=P([O-])(O)OP(=O)([O-])O.[NH-][C@@H]1CCCC[C@H]1[NH-].[Pt+4] | 11.2 µM and 8.21 µM | > 100 µM | 26.2 µM and 14.5 µM | > 100 µM | > 100 µM and 12.2 µM | > 100 | 70.6 µM and 7.93 µM | > 100 µM | 14.6 µM | > 100 µM | 20.6 µM and 7.98 µM | > 100 µM and 76.6 µM | > 95.5 µM and 13.2 µM | > 100 µM | > 75.1 µM and 11.2 µM | > 100 µM | 41.7 µM and 13.6 µM | > 100 µM | 52.4 µM | > 100 µM
COC(=O)C(C)N(C)C(=O)[C@H](CC(N)=O)N(C)C(=O)[C@@H]1CCCN1C(=O)[C@H](C(C)C)N(C)C(=O)C(C(C)C)N(C)C(=O)[C@@H](NC(=O)OC(C)(C)C)C(C)C (stereo not given in full) (Boc-V[ξNMeV][NMeV]P[NMeN][ξNMeA]-OMe) |  | > 100 µM | > 100 µM | > 100 µM | > 100 µM | > 100 | > 100 µM | > 100 µM |  | > 50 µM | 57 µM | > 100 µM | > 100 µM | > 100 µM |  | > 100 µM | 32.6 µM | > 50 µM and 96.8 µM | > 100 µM | > 100 µM
CC1=C2C[C@H]3[C@@H](CC=C4C[C@@H](O)CC[C@@]43C)[C@@H]2CC[C@]12O[C@@H]1C[C@H](C)CN[C@H]1[C@H]2C | 12.6 µM and 22.3 µM | 49.4 µM and > 100 µM | 40.8 µM and 19 µM | 50 µM and 40.2 µM | 21.6 µM | 57.9 | 20.3 µM and 17.3 µM | 50 µM and 33.1 µM | 13.6 µM and 21.2 µM | 44.7 µM and 39.7 µM | 15.5 µM and 17.3 µM | 50 µM and 33.4 µM | 17.8 µM and 24.5 µM | 50 µM and 68.6 µM | 32.1 µM and 18.8 µM | 50 µM and 37.3 µM | 6.01 µM | 27.9 µM and 12.3 µM | 7.17 µM and 14.2 µM | 25.9 µM and 34.1 µM
Nc1nc(=S)[nH]c(C(=O)Nc2ccc(Cl)c(Cl)c2)c1-c1ccc(Cl)cc1 |  | > 100 µM |  | > 100 µM |  | > 100 |  | > 100 µM |  | > 100 µM |  | > 100 µM |  | > 100 µM |  | > 100 µM |  | > 100 µM |  | > 100 µM
C1CCN(C2OC3C(COC3N3CCCCC3)OC2OC2CCO[C@@H]2N2CCCCC2)CC1 (stereo not given in full) |  | > 100 µM |  | > 100 µM |  | 47.5 |  | 88.1 µM |  | 25.8 µM |  | > 100 µM |  | > 100 µM |  | > 100 µM |  | 27.5 µM |  | > 100 µM
Cc1cc(N2CCN(c3ccnc4cc(Cl)ccc34)CC2)nc(NC2CCCCC2)n1 | 1.55 µM | 3.44 µM | 1.72 µM | 3.49 µM | 1.08 µM | 3.04 | 1.86 µM | 3.92 µM | 1.93 µM | 3.8 µM | 1.57 µM | 3.05 µM | 2.02 µM | 4.61 µM | 2.08 µM | 8.77 µM | 1.71 µM | 3.79 µM | 1.87 µM | 3.54 µM
